How the values were obtained:
HIF-1 = experiment: Immunohistochemistry of mouse bladder tumors, HIF-1; format: in vivo; conditions: ex vivo mouse bladder tumor, compared to control
Description: (§1) Histology slides were prepared and immunohistochemistry was performed at Immunohistochemistry Laboratory at IU Health Pathology. Harvested organ tissue and bladder tumors were fixed in formalin-free IHC Zinc Fixative, embedded in paraffin, and sectioned into 5 μm slices. HIF-1 and VEGF immunohistochemistry was performed using buffered zinc formalin fixed tumor section. Blocking, antigen retrieval, and primary and secondary antibody staining were performed […]. The tissue sections were imaged using Leica DMi1 inverted microscope, and image processing was performed using ImageJ software (Research Services, National Institute of Health). Each tissue section was imaged under ×20 and ×40 magnification, composite images were converted to RGB stacks and integrated density of staining was calculated.
(§2) Angiogenesis and high density of blood vessels has been correlated with poor prognosis, metastasis, and bladder cancer invasion in clinical studies.

VEGF = experiment: Immunohistochemistry of mouse bladder tumors, VEGF; format: in vivo; conditions: ex vivo mouse bladder tumor, compared to control
Description: as §1, §2

MB49 bladder tumor [1] = experiment: Intravesical treatment with ultrasound beam steering in orthotopic MB49 bladder cancer mouse model; conditions: in vivo
Description: (§3) Female C57BL/6 mice were anesthetized by 1-2% isoflurane gas inhalation at 2 L/min. Electrocauterization technique was used to create a minor injury on the wall of the bladder for MB49 cells to adhere to. A 24 gauge Teflon catheter (Terumo Surflo PTFE I.V. Catheters, Fisher Scientific) was inserted into the bladder through the urethra. Minor pressure was applied onto the bladder area to release the urine from the bladder. A wire, connected to the electrocautery unit was then instilled into the bladder through the catheter. 1×10^4 MB49 cells were then instilled into the bladder; dwelling time was approximately 20 minutes to allow the cells to adhere to the injured bladder wall.
(§4) After the bubbles were injected intravesically, a pulsed wave Doppler beam was applied for five minutes and B-mode images were recorded.
(§5) The mice were imaged 48 hours after the instillation of the tumors and treatment was administered every other day based on previously established protocols.
(§6) 3D images of bladder tumor were taken every other day using the Vevo 2100 ultrasound imaging system (Fujifilm VisualSonics Inc., Toronto CA). Vevo Lab software was used to manually segment given 3D images in 2D slices, with step sizes that can be as small as 10 μm. Segmentation of a 3D image allowed accurate volume measurements to be taken from each 3D image. […]

MB49 bladder tumor [2] = conditions: MMC 1 μg/mL; ONB-MMC 0.5 μg/mL MMC and 2 mg/mL ONB; intravesical
Description: as §3, §4, §5, §6

MB49 cells = experiment: In vitro beam steering factorial design, MB49 cell viability; format: cell-based, mouse

CO[C@@]12[C@H](COC(N)=O)C3=C(C(=O)C(C)=C(N)C3=O)N1C[C@@H]1N[C@@H]12 [MMC, mitomycin-C]
HIF-1 expression (IHC) (HIF-1): significantly lower | VEGF expression (IHC) (VEGF): significantly lower | average mouse body weights compared to ONB-MMC groups (MB49 bladder tumor [1]): significantly lower | tumor volume compared to CTRL (MB49 bladder tumor [2]): significant in reducing the tumor volume | effect on MB49 cell viability (factorial design) (MB49 cells; MMC 0.05-5 μg/mL, ONB 0.2-20 mg/mL): significant in decreasing cell viability | effect of ultrasound beam steering on cell viability (MB49 cells; beam ON/OFF, MMC 0.5 μg/mL and ONB 2 mg/mL at medium concentration): No significant effect

Source: patent US11821892B2, “Nanobubbles” (Purdue Research Foundation, priority 2014, dated 2023)
